The subject of data set [1] is murine cytomegalovirus and Sindbis virus. Particulars: phototoxic activity; cited from earlier work.
For another data set, the system named is murine cytomegalovirus. To be noted: only in presence of long wave ultraviolet radiation; cited from earlier work.
Another data set deals with Sindbis virus. Particulars: only in presence of long wave ultraviolet radiation; cited from earlier work.
For a further data set, the system named is bacteria. Description: Anti-bacterial activity (summary). It is filed as cell-based. Particulars: Table 14.
Another data set deals with Aspergillus. Description: Anti-Aspergillus activity (summary).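 Note: Letter grades where Y means active and y means less active.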 It is filed as cell-based. To be noted: Table 14.
For another data set, the system named is Candida. The data set is described as follows: Anti-Candida activity (summary).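 Note: Letter grades where Y means active and y means less active.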 It is filed as cell-based. Particulars: Table 14.
A further data set has as its system P815 mastocytoma. The data set is described as follows: LC50 (24 hrs.), doses required to inhibit growth in 50%, different method. To be noted: Mus musculus, P815, 24 h. Format: cell-based.
In data set [2] the test system is C. albicans. The data set is described as above. It is filed as cell-based, Candida albicans. Particulars: for IC50: Candida albicans, 24 hrs. The text has this: Doses Required to Inhibit Growth of C. albicans
in 50% During 24 hrs. (ng/ml)

For a further data set, the system named is L1210. The data set is described as follows: Growth inhibition of L1210 during 24 hours exposure. It is filed as cell-based, Mouse. To be noted: Mus musculus, L1210; 24 hours exposure; Table 1; read-out: Concentration causing 50% growth inhibition. The method, then: (§1) L1210 = Mouse lymphocytic leukemia
(§2) Doses inhibiting growth in 50% were estimated by plotting concentration o
(§3) a logarithmic scale and percent of growth inhibition for 24 hours exposur
(§4) on a probability scale.

Assay in data set [3]: as above
It is filed as cell-based, Mouse. To be noted: mouse, l1210 cells; Table 2; read-out: Toxicity Index, LC50 L1210 / C. albicans. The method, then: as §1, §2, §3, §4

In data set [4] the test system is P. aeruginosa. The data set is described as follows: Growth inhibition of P. aeruginosa during 24 hours exposure. It is filed as cell-based, Pseudomonas aeruginosa. To be noted: 24 hours exposure, Table 4. As to the method: as §2, §3, §4
The test system of a further data set is P815. Description: Growth inhibition of P815 mastocytoma during 24 hours exposure. It is filed as cell-based, Mouse. To be noted: 24 hours exposure. As to the method: (§5) P815 = Mouse mastocytoma […]
as §3, §4

Assay in data set [5]: as above
Format: cell-based, Mouse. Particulars: mouse, p815 cells. As to the method:
as §5, §3, §4

Data set [6] deals with C. albicans. The data set is described as follows: Growth inhibition of C. albicans during 24 hours exposure. Particulars: 24 hours exposure, Table 3. Format: cell-based, Candida albicans.
Data set [7] relates to E. coli. Description: Growth inhibition of E. coli during 24 hours exposure. Format: cell-based, Escherichia coli. Particulars: 24 hours exposure, Table 3.
Data set [8] deals with E. coli. The data set is described as above. It is filed as cell-based, Escherichia coli. To be noted: 24 hours exposure, Table 4. The method, then: as §2, §3, §4
A further data set has as its system Aspergillus fumigatus. Description: Sensitivity of Aspergillus fumigatus, agar diffusion method. It is filed as cell-based. To be noted: disc diameter 6 mm, read-out: Zone of Growth Inhibition. The text has this: Results were obtained by agar diffusion method. Disc diameter - 6 mm. -* = no zone over disc diameter.
Background: Agar diffusion results depend on both activity and mobility in agar.

Data set [9] in a line: Growth inhibition of 3T3 during 24 hours exposure. Particulars: mouse, 3t3 cells; Table 2; read-out: Toxicity Index, LC50 3T3 / LC50 C. albicans. It is filed as cell-based, Mouse. The method, then:
(§6) 3T3 = Mouse fibroblasts
as §2, §3, §4

The subject of another data set is 3T3. The data set is described as follows: Growth inhibition of 3T3 during 24 hours exposure. Format: cell-based, Mouse. Particulars: Mus musculus, NIH3T3; 24 hours exposure; Table 1; read-out: Concentration causing 50% growth inhibition. The method, then: as §6, §2, §3, §4
Data set [10] is described as follows: Growth inhibition of WEHI-3 during 24 hours exposure. Particulars: mouse, wehi-3 cells; Table 2; read-out: Toxicity Index, LC50 WEHI-3 / LC50 C. albicans. Format: cell-based, Mouse. As to the method:
(§7) WEHl3 = Mouse myelomonocyte
as §2, §3, §4

A further data set concerns WEHI-3. The data set is described as above. Format: cell-based, Mouse. Particulars: Mus musculus, WEHI-3; 24 hours exposure; Table 1; read-out: Concentration causing 50% growth inhibition. As to the method:
as §7, §2, §3, §4

The test system of data set [11] is P. aeruginosa. The data set is described as follows: Growth inhibition of P. aeruginosa during 24 hours exposure. It is filed as cell-based, Pseudomonas aeruginosa. Particulars: for Minimal concentration causing 100% growth inhibition: Table 3.
The subject of data set [12] is C. albicans. The data set is described as follows: Growth inhibition of C. albicans during 24 hours exposure. Format: cell-based, Candida albicans. Particulars: 24 hours exposure; for IC50: Candida albicans. As to the method: as §2, §3, §4
For data set [13], the system named is above organisms, as well as CHO cells. To be noted: UV-A light required; cited from earlier work.
The mark [14] stands for this setting: Table 13, read-out: Lc50 24 hrs.
The mark [15] stands for this setting: Table 7, read-out: LC50 (24 hrs.), dose required to inhibit growth in 50%.

Converted amounts (≈) assume the structure as drawn. Where two headings read alike, the source gives them in different places.

In general, zone of inhibition refers to the size of the clear area around the sample on an inoculated plate.

In the case of `c1csc(-c2ccc(-c3cccs3)s2)c1` [alpha-terthienyl], in data set [1], the Order of potency entry is given as “alpha-terthienyl thiarubrine-A > phenylheptatriyne > ACBP-thiophene > thiophene-A”. Further, the Toxicity to virus result in the data set on murine cytomegalovirus and with Sindbis virus was “extremely toxic” throughout.

For the compound `C=C/C=C/C#CC1=CC=C(C#CC)SS1` [Thiarubrine C, reference compound], the Anti-bacterial result with bacteria is “Y”. Besides, in the data set with Aspergillus, the Anti-Aspergillus entry is “Y”. In addition, in the data set on Candida, the Anti-Candida entry is recorded as “Y”.

With `CC#CC1=CC=C(C#CC#CC(Cl)CO)SS1` (stereo not drawn) [Thiarubrine F], the Anti-bacterial result in the data set with bacteria is recorded as “Y”. The Anti-Aspergillus entry in the data set on Aspergillus is recorded as “Y”. Moreover, in the data set on Candida, the Anti-Candida entry was “Y”. For the same compound, the IC50 turned out to be 0.14 µg/mL (≈ 0.499 µM) in the data set with P815 mastocytoma (read-out: Lc50 24 hrs.) and 0.006 µg/mL (≈ 0.0214 µM) in the data set with C. albicans [2] (setting [14]). Besides, the “Inhibition of growth of Candida albicans” value in the data set with C. albicans [2] is reported as “nanogram/ml range”.

As for `C=CC#CC#CC1=CC=C(C#CCO)SS1` [Thiarubrine H], the Anti-Candida entry with Candida is recorded as “Y”. Besides, the results for the IC50 with P815 mastocytoma (read-out: Lc50 24 hrs.) and in the data set on C. albicans [2] (setting [14]) were 0.059 µg/mL (≈ 0.241 µM) and 0.004 µg/mL (≈ 0.0164 µM), respectively. In addition, the “Inhibition of growth of Candida albicans” value in the data set with C. albicans [2] was “nanogram/ml range”.

Regarding `CC#CC1=CC=C(C#CC#CC(O)CO)SS1` (stereo not drawn) [Thiarubrine E], the IC50 in the data set on L1210 was 0.027 µg/mL (≈ 0.103 µM); in the data set on P. aeruginosa [4] (Pseudomonas aeruginosa, read-out: Minimal concentration causing 50% growth inhibition) it was 0.28 µg/mL (≈ 1.07 µM); in the data set on P815 (Mus musculus, P815, Table 1, read-out: Concentration causing 50% growth inhibition), 0.024 µg/mL (≈ 0.0915 µM); in the data set on P815 (Mus musculus, P815, Table 4, read-out: Minimal concentration causing 50% growth inhibition) it was 0.024 µg/mL (≈ 0.0915 µM); in the data set on E. coli [8] (Escherichia coli, read-out: Minimal concentration causing 50% growth inhibition) it was 0.015 µg/mL (≈ 0.0572 µM); in the data set with 3T3, 0.12 µg/mL (≈ 0.457 µM). Moreover, the IC50 in the data set on WEHI-3 was found to be 0.04 µg/mL (≈ 0.152 µM); in the data set with P815 mastocytoma (read-out: LC50 (24 hrs.), dose required to inhibit growth in 50%) it was 0.028 µg/mL (≈ 0.107 µM); in the data set on C. albicans [12] (Table 1, read-out: Concentration causing 50% growth inhibition), 0.0014 µg/mL (≈ 0.00534 µM); in the data set with C. albicans [12] (Table 4, read-out: Minimal concentration causing 50% growth inhibition), 0.0014 µg/mL (≈ 0.00534 µM); in the data set with C. albicans [2] (setting [15]), 0.006 µg/mL (≈ 0.0229 µM). In addition, the selectivity ratio at 24 h in [3] came to 19; in data set [5] (50% growth inhibition, Table 4, read-out: Ratio of concentration needed to inhibit growth in 50%, P815 vs C. albicans), 17; in [5] (100% growth inhibition, Table 3, read-out: Ratio of minimal concentration causing 100% growth inhibition, P815 line vs C. albicans) it was 65; in data set [5] (Table 2, read-out: Toxicity Index, LC50 P815 / LC50 C. albicans), 17; in data set [9], 86; in data set [10], 28. In addition, the Anti-bacterial entry in the data set on bacteria was “Y”. In addition, the IC100 in the data set with P815 (Mus musculus, P815, Table 3, read-out: Minimal concentration causing 100% growth inhibition) worked out at 0.312 µg/mL. The MIC was found to be 0.0048 µg/mL (≈ 0.0183 µM) with C. albicans [6] (Candida albicans, read-out: Minimal concentration causing 100% growth inhibition); 0.019 µg/mL (≈ 0.0724 µM) in the data set on E. coli [7] (Escherichia coli, read-out: Minimal concentration causing 100% growth inhibition); 0.625 µg/mL (≈ 2.38 µM) with P. aeruginosa [11] (Pseudomonas aeruginosa, Table 3, read-out: Minimal concentration causing 100% growth inhibition). For the same compound, the zone of inhibition at 0.01 µg/disc in the data set with Aspergillus fumigatus (10 ng/disc) was 17 mm. Moreover, the zone of inhibition at 0.1 µg/disc in the data set on Aspergillus fumigatus (100 ng/disc) is 36 mm. The zone of inhibition at 1 µg/disc in the data set with Aspergillus fumigatus (1,000 ng/disc) was found to be 50 mm. The zone of inhibition at 10 µg/disc in the data set on Aspergillus fumigatus (10,000 ng/disc) is 50 mm. The Anti-Aspergillus result with Aspergillus is given as “Y”. In the data set on Candida, the Anti-Candida result is listed as “Y”. Further, the “Inhibition of growth of Candida albicans” value with C. albicans [2] is given as “nanogram/ml range”.

For the compound Gentamycin [reference compound], the “Minimal concentration causing 50% growth inhibition” value is 1.0 µg/mL in the data set on P. aeruginosa [4] and 0.37 µg/mL in the data set with E. coli [8]. Besides, the “Minimal concentration causing 100% growth inhibition” value with E. coli [7] turned out to be 1.25 µg/mL; with P. aeruginosa [11] it was 2.5 µg/mL.

As for `Clc1ccc(COC(Cn2ccnc2)c2ccc(Cl)cc2Cl)cc1` (stereo not drawn) [Econazole, reference compound], the IC50 in the data set with C. albicans [2] (setting [15]) was found to be 0.056 µg/mL (≈ 0.147 µM).

`C=CC#CC#Cc1ccc(C#CC)s1` [thiophene A]: the Phototoxicity result in [13] is on record as “phototoxic, requiring UV-A light for biological activity”. For the same compound, the Order of potency result in [1] is given as “alpha-terthienyl thiarubrine-A > phenylheptatriyne > ACBP-thiophene > thiophene-A”.

On to `CC#CC1=CC=C(C#CC#CC(O)CCl)SS1` (stereo not drawn) [Thiarubrine G], for which the Anti-bacterial entry in the data set on bacteria is “Y”. In addition, the Anti-Aspergillus result in the data set on Aspergillus is recorded as “Y”. For the same compound, the Anti-Candida entry with Candida is given as “Y”. Also, the IC50 in the data set with P815 mastocytoma (read-out: Lc50 24 hrs.) was 0.09 µg/mL (≈ 0.321 µM); in the data set on C. albicans [2] (setting [14]), 0.008 µg/mL (≈ 0.0285 µM). Besides, the “Inhibition of growth of Candida albicans” value in the data set with C. albicans [2] is recorded as “nanogram/ml range”.

In the case of `CC#Cc1ccc(C#CC#CC(O)CO)s1` (stereo not drawn) [Thiophene E], the “Minimal concentration causing 50% growth inhibition” value in the data set on P. aeruginosa [4] is above 5.0 µg/mL; with P815 (Table 4) it was 4.0 µg/mL; with E. coli [8] it was above 5.0 µg/mL; in the data set on C. albicans [12] (Table 4), 4.5 µg/mL. For the same compound, the “Minimal concentration causing 100% growth inhibition” value in the data set on P815 (Table 3), with C. albicans [6], with E. coli [7] and in the data set on P. aeruginosa [11] was above 5.0 µg/mL each time.

As to `C=CC#CC1=CC=C(C#CC#CC)SS1` [Thiarubrine B, 3 (pent-3-yn-1-ynyl) 6 (3-buten-1-ynyl)-1,2-dithiacyclohexa-3,5-diene, reference compound], the Anti-bacterial result in the data set on bacteria is listed as “Y”. For the same compound, the Anti-Aspergillus result in the data set on Aspergillus is “Y”. The Anti-Candida entry in the data set with Candida was “Y”.

Values taken from patent publication US5202348A, “Thiarubrine antifungal agents” (The University of British Columbia, priority 1990, dated 1993).
